As a reminder, the half-life is how long it takes for the measured level to halve.

SMILES strings stand for the structures. Where two headings read alike, the source gives them in different places.

Series [1] relates to HCT116 p53+/+ cells. Description: Antiproliferative activity, sulforhodamine B (SRB) assay. In kind it is cell-based, human. The protocol:
(§1) Tumor cells were cultured in RPMI-1640 with UltraGlutamine (Lonza, VWR), supplemented with 10% fetal bovine serum (FBS; Gibco, Alfagene) and maintained in a humidified incubator at 37 °C with 5% CO2. Cell lines were seeded in 96-well plates at the cells/well density of 5.0 × 10^3.
Background: Sulforhodamine B stains cellular protein and so reports cell mass.

Series [2] relates to HCT116 p53−/− cells. The series is described as above. In kind it is cell-based, human. Particulars: 48 h treatment, mean ± SEM of 3–5 independent experiments, read-out: HCT116 p53−/− GI50. The protocol:
as §1

A short description of series [3]: Human liver microsomes incubations: half-life and intrinsic clearance. The series is classed as in vitro ADME. The protocol:
For the generation of Phase I metabolites: tested compounds, at a 10 μM concentration (1 μL of 5 mM DMSO stock solution), were incubated with HLM (1 mg protein/mL), Vivid® regenerating system (5 μL) and NADPH (1mM) in ABIC 50 mM buffer pH 7.4, for a total incubation volume of 500 μL. Incubations were run in duplicate, at 37 °C. Aliquots were collected at 0, 5, 10, 20, 30, 40, 50, 60, 75, 90, 120, 180 min and reactions were stopped by adding and ice-cold solution of reserpine (2.5 μM) in acetonitrile. Additional aliquots were taken at 0 and 120 min and subsequently treated with L-lysine (100 µM) and sodium cyanoborohydride (10 µM) or glutathione (100 µM). Following centrifugation (10,000 rpm, 15 min, RT), the clear supernatants were collected and analyzed LC-ESI-HRMS/MS. Control incubations were conducted in the same conditions: (1) using DMSO as negative control, in absence of the test drug; (2) using heat-denatured HLM (90 °C, 15 min); (3) using nevirapine, as a positive control, instead of the tested compound; and (4) in absence of NADPH co-factor.
The in vitro depletion half-lives of tested compounds t1/2 were calculated using Equation (1), assuming that testing compounds follow a first-order kinetic trend. The “slope” was determined from linear fitting of the natural logarithm of the concentration of drug remaining plotted against time:(1) t1/2=ln2/slope
The intrinsic clearance in HLM (CLint, HLM) was calculated using Equation (2):(2) CLint HLM =ln2/ t1/2 x mL incubation/mg microsomes x 45 mg microsomes/g liver x 26 g liver/Kg b.w.
(In general: Liver microsomes are vesicles of endoplasmic reticulum, rich in cytochrome P450 enzymes.)

The nature of series [4]: In vitro reactions with bionucleophiles. Particulars: with or without enzymatic conditions (S9 rat liver incubations). How it is done: To a solution of compound 13d in acetonitrile (1.00 eq., 10.1 mg in 400 µL, 5.04 × 10^−2 M) reduced glutathione (4.00 eq. 25.2 mg, 82.00 µmol) dissolved in 400 µL of ABIC buffer 50 mM pH 7.4 was added. The reaction mixture was incubated for 24 h at 37 °C and monitored by LC-ESI-HRMS/MS.
To a solution of compound 13k in acetonitrile (1.00 eq., 4.3 mg in 200 µL, 3.92 × 10^−2 M) reduced glutathione (4.00 eq. 9.64 mg, 31.36 µmol) dissolved in 200 µL of ABIC buffer 50 mM pH 7.4 was added. The reaction mixture was incubated for 24 h at 37 °C and monitored by LC-ESI-HRMS/MS.
SLMP53-1_M5 (1.00 eq., 2.1 mg, dissolved in 150 µL of ACN) was added to a L-lysine (2 eq.) solution in 50 mM ABIC buffer pH 7.4. Following incubation for 24 h at 37 °C a solution of cyanoborohydride (2 eq) was added. The mixture was analyzed by LC-ESI(+)-HRMS/MS.

As for `CCCn1c(Br)c(C[C@H]2CO[C@]3(c4ccccc4)c4ccccc4C(=O)N23)c2ccccc21` [Compound 13d, (3S, 9bR)-3-((2-bromo-1-propyl-1H-indol-3-yl)methyl)-9b-phenyl-2,3-dihydrooxazolo[2,3-a]isoindol-5(9bH)-one], the “more active than SLMP53-2 (7)” value in series [1] (HCT116 p53+/+) was determined as 2 fold. In series [1] (HCT116 p53−/− versus HCT116 p53+/+), the “S.I. (selectivity index)” value came to 1.9. For the same molecule, the GI50 came out at 4 ± 0.5 µM in series [1] (Homo sapiens, HCT-116, 48 h treatment, mean ± SEM of 3–5 independent experiments, read-out: HCT116 p53+/+ GI50); 7.45 ± 0.95 µM in series [2]; 7.5 µM in series [2] (Homo sapiens, HCT-116, 48 h). Also, the “Intrinsic Clearance” value in series [3] (HLM, calculated from half-life (Equation 2)) is 5.5 mL/min/kg. Besides, in series [3] (HLM, classification after ref 32), the clearance classification entry was “low clearance”. The molecule further had a half-life at 10 μM in series [3] (human, liver microsomes, pH 7.4, HLM 1 mg protein/mL, 10 μM, NADPH, 37 °C) of 1.53 h. For the same molecule, in series [4], the “products of addition of GSH with concomitant loss of bromine” value was “no products compatible with the addition of GSH, and the concomitant loss of bromine, were detected”.
